Marks after values point to notes of the source that are not given here.
Legend:
[1] = test system: Puccinia recondita f. sp. tritici; test: Test G: wheat leaf rust, spray after inoculation (curative) on wheat seedlings, visual disease rating; assay type: in vivo; details: 100 = 100% disease control; for Test G rating (disease control) / pest or weed control at 200 µg/mL: sprayed after inoculation, 0 = no disease control; for Test G rating (% disease control): spray after inoculation, rating without asterisk
From the text: (§1) A hyphen (-) indicates no test results.

[2] = test system: Puccinia recondita f. sp. tritici; test: Test H: wheat leaf rust, preventive spray on wheat seedlings, visual disease rating; details: 100 = 100% disease control; for Test H rating (disease control) / Test H rating (% disease control): wheat leaf rust; for Test H rating (disease control): sprayed the day before inoculation; for Test H rating (disease control) / pest or weed control at 200 µg/mL: 0 = no disease control; for Test H rating (% disease control): preventive spray, rating without asterisk; for pest or weed control at 200 µg/mL: read-out: Test H rating (disease control), wheat leaf rust, sprayed the day before inoculation
Botrytis cinerea = test: Test A: tomato Botrytis, preventive spray on tomato seedlings, visual disease rating; details: 100 = 100% disease control; for Test A rating (disease control) / Test A rating (% disease control): tomato Botrytis; for Test A rating (disease control) / pest or weed control at 200 µg/mL: 0 = no disease control relative to the controls; for Test A rating (% disease control): preventive spray, 0 = no control relative to controls, rating without asterisk; for pest or weed control at 200 µg/mL: Botrytis cinerea, in Solanum lycopersicum, read-out: Test A rating (disease control), tomato Botrytis
[3] = test system: Blumeria graminis f. sp. tritici; test: Test I: wheat powdery mildew, preventive spray on wheat seedlings, visual disease rating; details: 100 = 100% disease control; for Test I rating (disease control) / Test I rating (% disease control): wheat powdery mildew; for Test I rating (disease control) / pest or weed control at 200 µg/mL: 0 = no disease control relative to the controls; for Test I rating (% disease control): preventive spray, rating without asterisk; for pest or weed control at 200 µg/mL: Blumeria graminis, in Triticum aestivum, read-out: Test I rating (disease control), wheat powdery mildew
Septoria tritici = test: Test F: wheat leaf blotch, preventive spray on wheat seedlings, visual disease rating; assay type: in vivo; parameters: Test F rating (disease control), value marked *: concentration or dose not given beside the values; details: for Test F rating (disease control) / Test F rating (% disease control) / pest or weed control at 200 µg/mL: 100 = 100% disease control; for Test F rating (disease control) / pest or weed control at 200 µg/mL: 0 = no disease control relative to the controls; for Test F rating (% disease control): preventive spray, rating without asterisk; for pest or weed control at 200 µg/mL: Zymoseptoria tritici
From the text: as §1

Septoria nodorum = test: Test E: Septoria glume blotch, preventive spray on wheat seedlings, visual disease rating; details: 100 = 100% disease control; for Test E rating (disease control): Septoria glume blotch; for Test E rating (disease control) / pest or weed control at 200 µg/mL: 0 = no disease control relative to the controls; for Test E rating (% disease control): Septoria glume blotch on wheat, preventive spray, rating without asterisk; for pest or weed control at 200 µg/mL: Parastagonospora nodorum, in Triticum aestivum, read-out: Test E rating (disease control), Septoria glume blotch
Alternaria solani = test: Test B: tomato early blight, preventive spray on tomato seedlings, visual disease rating; details: for Test B rating (disease control) / Test B rating (% disease control): tomato early blight, 100 = 100% disease control; for Test B rating (disease control): 0 = no disease control relative to the controls; for Test B rating (% disease control): preventive spray, rating without asterisk; for pest or weed control at 200 µg/mL: Alternaria solani, in Solanum lycopersicum, read-out: Test B rating (disease control)

Row | SMILES | Test G rating (disease control) [1] [%] | Test H rating (disease control) [2] [%] | Test A rating (disease control) (Botrytis cinerea) [%] | Test I rating (disease control) [3] [%] | Test F rating (disease control) (Septoria tritici) [%] | Test E rating (disease control) (Septoria nodorum) [%] | Test B rating (disease control) (Alternaria solani) [%] | other results
1 | Cc1nn(C)c(Nc2ccc(Cl)cc2Cl)c1-c1c(F)cccc1F [compound 50] | 0 | 93 | 100 | 100 | 95 | 73 | 99 | –
2 | Cc1nn(C)c(Nc2c(F)cccc2F)c1-c1c(F)cccc1F [compound 69] | 0 | 99 | 100 | 100 | 100 | 60 | 99 | –
3 | COc1ccc(-c2c(C)nn(C)c2Oc2ccc(C#N)cc2F)c(Br)c1 [compound 100] | 0 | 99 | 92 | 95 | 100 | 100 | 88 | –
4 | Cc1nn(C)c(Nc2c(F)cc(Br)cc2Br)c1-c1ccc(F)cc1F [compound 211] | – | – | – | – | – | – | – | Test G rating (% disease control) [1]: 82%; Test H rating (% disease control) [2]: 100%; Test A rating (% disease control) (Botrytis cinerea): 98%; Test I rating (% disease control) [3]: 100%; Test F rating (% disease control) (Septoria tritici): 100%; Test E rating (% disease control) (Septoria nodorum): 99%; Test B rating (% disease control) (Alternaria solani): 99%
5 | Cc1nn(C)c(Nc2c(Cl)cc(F)cc2Cl)c1-c1ccc(F)cc1F [Compound 137, N-(2,6-dichloro-4-fluorophenyl)-4-(2,4-difluorophenyl)-1,3-dimethyl-1H-pyrazol-5-amine] | – | – | – | – | – | – | – | pest or weed control at 200 µg/mL [1]: 87%; pest or weed control at 200 µg/mL [2]: 99%; pest or weed control at 200 µg/mL (Botrytis cinerea): 100%; pest or weed control at 200 µg/mL [3]: 100%; pest or weed control at 200 µg/mL (Septoria tritici): 100%; pest or weed control at 200 µg/mL (Septoria nodorum): 87%; pest or weed control at 200 µg/mL (Alternaria solani): 95%
6 | Cc1nn(C)c(Nc2ccc(F)cc2Cl)c1-c1ccc(C#N)cc1Cl [compound 112] | 8 | 100 | 100 | 99 | 100 | 40 | 37 | –
7 | Cc1nn(C)c(Oc2ccc(C#N)cc2Br)c1-c1ccc(F)cc1F [Compound 139, 3-bromo-4-[[4-(2,4-difluorophenyl)-1,3-dimethyl-1H-pyrazol-5-yl]oxy]benzonitrile] | – | – | – | – | – | – | – | pest or weed control at 200 µg/mL [1]: 9%; pest or weed control at 200 µg/mL [2]: 89%; pest or weed control at 200 µg/mL (Botrytis cinerea): 82%; pest or weed control at 200 µg/mL [3]: 0%; pest or weed control at 200 µg/mL (Septoria tritici): 100%; pest or weed control at 200 µg/mL (Septoria nodorum): 0%; pest or weed control at 200 µg/mL (Alternaria solani): 0%
8 | COc1ccc(-c2c(C)nn(C)c2Nc2ccc(Cl)cc2Cl)c(Cl)c1 [compound 77] | 0 | 99 | 99 | 100 | – | 0 | 98 | Test F rating (disease control), value marked * (Septoria tritici; rating marked with asterisk (*), other test condition, not explained in the text shown): 99* %
9 | Cc1nn(C)c(Nc2ccc(F)cc2F)c1-c1ccccc1F [compound 52] | 0 | 60 | 94 | 98 | 100 | 0 | 44 | –
10 | Cc1nn(C)c(Nc2ccc(F)cc2Cl)c1-c1ccc(F)cc1F [compound 61] | 0 | 99 | 100 | 100 | 100 | 64 | 93 | –
11 | Cc1nn(C)c(Nc2c(F)cc(F)cc2F)c1-c1ccc(F)cc1F [Compound 11, 4-(2,4-difluorophenyl)-1,3-dimethyl-N-(2,4,6-trifluorophenyl)-1H-pyrazol-5-amine] | – | – | – | – | – | – | – | pest or weed control at 200 µg/mL [1]: 0%; pest or weed control at 200 µg/mL [2]: 100%; pest or weed control at 200 µg/mL (Botrytis cinerea): 100%; pest or weed control at 200 µg/mL [3]: 99%; pest or weed control at 200 µg/mL (Septoria tritici): 94%; pest or weed control at 200 µg/mL (Septoria nodorum): 90%; pest or weed control at 200 µg/mL (Alternaria solani): 99%
12 | CCOc1ccc(-c2c(C)nn(C)c2Nc2c(F)cc(Cl)cc2Cl)c(Cl)c1 [compound 202] | – | – | – | – | – | – | – | Test G rating (% disease control) [1]: 35%; Test H rating (% disease control) [2]: 92%; Test A rating (% disease control) (Botrytis cinerea): 99%; Test I rating (% disease control) [3]: 95%; Test F rating (% disease control) (Septoria tritici): 100%; Test E rating (% disease control) (Septoria nodorum): 0%; Test B rating (% disease control) (Alternaria solani): 77%
13 | COc1ccc(Nc2c(-c3ccc(F)cc3Br)c(C)nn2C)c(Cl)c1 [compound 103] | 63 | 99 | 99 | 99 | 100 | 0 | 83 | –
14 | Cc1nn(C)c(Oc2ccc(Cl)cc2Cl)c1-c1c(F)cc(F)cc1F [compound 9] | 0 | 99 | 99 | 99 | 97 | 0 | 9 | –
15 | Cc1nn(C)c(Nc2ccc(F)cc2Cl)c1-c1c(F)cccc1Cl [Compound 58, N-(2-chloro-4-fluorophenyl)-4-(2-chloro-6-fluorophenyl)-1,3-dimethyl-1H-pyrazol-5-amine] | – | – | – | – | – | – | – | pest or weed control at 200 µg/mL [1]: 32%; pest or weed control at 200 µg/mL [2]: 99%; pest or weed control at 200 µg/mL (Botrytis cinerea): 99%; pest or weed control at 200 µg/mL [3]: 100%; pest or weed control at 200 µg/mL (Septoria tritici): 100%; pest or weed control at 200 µg/mL (Septoria nodorum): 0%; pest or weed control at 200 µg/mL (Alternaria solani): 100%
16 | Cc1nn(C)c(Nc2c(F)cc(F)cc2I)c1-c1ccc(F)cc1F [compound 214] | – | – | – | – | – | – | – | Test G rating (% disease control) [1]: 99%; Test H rating (% disease control) [2]: 99%; Test A rating (% disease control) (Botrytis cinerea): 100%; Test I rating (% disease control) [3]: 100%; Test F rating (% disease control) (Septoria tritici): 100%; Test E rating (% disease control) (Septoria nodorum): 99%; Test B rating (% disease control) (Alternaria solani): 100%
17 | COc1ccc(-c2c(C)nn(C)c2Nc2c(F)cc(Cl)cc2F)c(Cl)c1 [compound 204] | – | – | – | – | – | – | – | Test G rating (% disease control) [1]: 99%; Test H rating (% disease control) [2]: 100%; Test A rating (% disease control) (Botrytis cinerea): 99%; Test I rating (% disease control) [3]: 100%; Test F rating (% disease control) (Septoria tritici): 100%; Test E rating (% disease control) (Septoria nodorum): 99%; Test B rating (% disease control) (Alternaria solani): 99%
